Literature values in patent US10851223B2, “Use of a cyclodextrin polycondensate or a composition comprising such a polycondensate, as a capturing agent” (BIOSTART, priority 2016, dated 2020).

Conditions: octanol/water
For `CN(C)C(=O)Nc1ccc(Cl)c(Cl)c1` [Diuron], the “Log Kow” value is listed as 2.68. In the case of `Clc1ccc(-c2ccc(Cl)cc2Cl)cc1` [PCB 28], the “Log Kow” value is listed as 5.62. In the case of `Clc1ccc(Cl)c(-c2cc(Cl)ccc2Cl)c1` [PCB 52], the “Log Kow” value is given as 6.12. In the case of `Clc1ccc(Cl)c(-c2cc(Cl)c(Cl)cc2Cl)c1` [PCB 101], the “Log Kow” value is listed as 6.8. In the case of `Clc1ccc(-c2cc(Cl)c(Cl)cc2Cl)cc1Cl` [PCB 118], the “Log Kow” value is given as 6.84. For `Clc1cc(Cl)c(-c2ccc(Cl)c(Cl)c2Cl)cc1Cl` [PCB 138], the “Log Kow” value is given as 7.25. For `Clc1cc(Cl)c(-c2cc(Cl)c(Cl)cc2Cl)cc1Cl` [PCB 153], the “Log Kow” value is given as 7.21. For `Clc1cc(Cl)c(-c2cc(Cl)c(Cl)c(Cl)c2Cl)cc1Cl` [PCB 180], the “Log Kow” value is listed as 7.7. For `c1ccc2c(c1)c1cccc3ccc4cccc2c4c31` [benzopyrene], the “Log Kow” value is listed as 6.07. For `CCCCC(CC)COC(=O)c1ccccc1C(=O)OCC(CC)CCCC` (stereo not shown) [di(2-ethylhexyl)-phthalate], the “Log Kow” value is given as 7.6.
